{"source": "patent US20120141611A1", "about": "“METHODS AND COMPOSITIONS USING ERGOTHIONEINE TO TREAT A VARIETY OF HEALTH RELATED FACTORS” (Oxis International Inc., priority 2010, published 2012)", "origin": "cited, not measured here", "key": {"[1]": {"details": "cited from earlier work"}, "[2]": {"details": "cited from earlier work", "remark": "listed apart in the source"}, "A549 cells": {"tested_on": "A549 cells", "details": "cited from earlier work"}, "[3]": {"details": "animal studies, in the diet; cited from earlier work"}, "cerebellum": {"tested_on": "cerebellum", "details": "decerebrate rabbit; cited from earlier work"}, "glutathione peroxidase": {"tested_on": "glutathione peroxidase", "details": "mouse liver cytosol fractions; cited from earlier work"}, "hepatic microsomes": {"tested_on": "hepatic microsomes", "details": "NADPH or ascorbic acid challenge; cited from earlier work"}, "[4]": {"details": "Ox; cited from earlier work"}, "[5]": {"details": "cited from earlier work", "remark": "listed apart in the source"}, "[6]": {"details": "Pig; cited from earlier work"}, "[7]": {"details": "physiological concentrations; cited from earlier work"}, "[8]": {"details": "cited from earlier work", "remark": "listed apart in the source"}, "[9]": {"details": "Dog, cited from earlier work"}, "[10]": {"details": "<1 nmol/gm liver versus dietary-augmented animals 1400 nmol/gm liver; cited from earlier work"}, "erythrocytes": {"tested_on": "erythrocytes", "details": "rats, administered in the diet; cited from earlier work"}, "[11]": {"details": "Fowl; cited from earlier work"}, "[12]": {"details": "225 g rat, controlled diet of ergothioneine supplementation"}}, "note": "Like-named read-outs stand apart in the source and are kept apart here."}
{"smiles": "C[N+](C)(C)[C@@H](Cc1c[nH]c(=S)[nH]1)C(=O)[O-]", "note": "[Ergothioneine, ergothioneine]", "values": [{"measurement": "Concentration of LE in tissue", "setting": "[1]; Cat, Heart", "result": 0.0, "unit": "mgs/100 gm fresh tissue"}, {"measurement": "Concentration of LE in tissue", "setting": "[1]; Cat, Kidney", "result": 3.1, "unit": "mgs/100 gm fresh tissue"}, {"measurement": "Concentration of LE in tissue", "setting": "[1]; Cat, Liver", "result": 2.7, "unit": "mgs/100 gm fresh tissue"}, {"measurement": "Concentration of LE in tissue", "setting": "[1]; Cat, Lungs", "result": 0.8, "unit": "mgs/100 gm fresh tissue"}, {"measurement": "Concentration of LE in tissue", "setting": "[1]; Cat, RBC", "result": 2.9, "unit": "mgs/100 gm fresh tissue"}, {"measurement": "Concentration of LE in tissue", "setting": "[1]; Cat, Testes", "result": 0.0, "unit": "mgs/100 gm fresh tissue"}, {"measurement": "Concentration of l-ergothioneine in the blood", "setting": "[1]; Cat", "result": "0.5-2 mg/100 ml blood"}, {"measurement": "Ergothioneine in brain", "setting": "[1]; brains of cats", "result": 3.0, "unit": "µg/g"}, {"measurement": "Concentration of l-ergothioneine in the blood", "setting": "[2]; G. Pig", "result": "1-4 mg/100 ml blood"}, {"measurement": "Ergothioneine in brain", "setting": "[2]; brains of guinea-pigs", "result": 10, "unit": "µg/g"}, {"measurement": "H2O2 and TNF-alpha imposed oxidative stress in IL-8-CAT reporter system", "setting": "A549 cells", "result": "inhibits"}, {"measurement": "Dietary level producing measurable changes in circulating whole blood levels", "setting": "[3]", "result": "1 part per 100,000"}, {"measurement": "Action on the electrical activity of the cerebellum", "setting": "cerebellum", "result": "some excitatory action"}, {"measurement": "Glutathione peroxidase activity", "setting": "glutathione peroxidase", "result": "markedly increased"}, {"measurement": "NADPH-dependent enzymatic lipid peroxidation", "setting": "hepatic microsomes", "result": "inhibits"}, {"measurement": "Concentration of l-ergothioneine in the blood", "setting": "[4]", "result": "0.5-2 mg/100 ml blood"}, {"measurement": "Absorptive gain per day", "setting": "[5]; [12]", "result": 20, "unit": "µg/day"}, {"measurement": "Fecal and urine loss", "setting": "[5]; [12]", "result": 2, "unit": "ug/per day"}, {"measurement": "Fraction of dietary ergothioneine absorbed", "setting": "[5]; 225 gm rat, 20 ug/day in the diet (Mayumi et al.)", "result": 90, "unit": "%"}, {"measurement": "Time to double the total body amount of ergothioneine", "setting": "[5]; rat, 89 ug ergothioneine/kg-day supplementation", "result": "approximately 2 months"}, {"measurement": "Accumulation rate", "setting": "[5]; rat, from gain and loss per day", "result": 90, "unit": "%"}, {"measurement": "Concentration of l-ergothioneine in the blood", "setting": "[6]", "result": "3-27 mg/100 ml blood"}, {"measurement": "Protection of API against HOCl-induced inactivation", "setting": "[7]", "result": "protect very efficiently"}, {"measurement": "Concentration of l-ergothioneine in the blood", "setting": "[8]; Man", "result": "1-4 mg/100 ml blood"}, {"measurement": "Levels in human blood cells", "setting": "[8]; healthy males from Saudi Arabia", "result": "1-4 mg/100 mL"}, {"measurement": "Concentration of LE in tissue", "setting": "[9]; Heart", "result": 8.9, "unit": "mgs/100 gm fresh tissue"}, {"measurement": "Concentration of LE in tissue", "setting": "[9]; Kidney", "result": 1.6, "unit": "mgs/100 gm fresh tissue"}, {"measurement": "Concentration of LE in tissue", "setting": "[9]; Liver", "result": 0.9, "unit": "mgs/100 gm fresh tissue"}, {"measurement": "Concentration of LE in tissue", "setting": "[9]; Lungs", "result": 0.6, "unit": "mgs/100 gm fresh tissue"}, {"measurement": "Concentration of LE in tissue", "setting": "[9]; RBC", "result": 6.6, "unit": "mgs/100 gm fresh tissue"}, {"measurement": "Concentration of LE in tissue", "setting": "[9]; Spleen", "result": 1.1, "unit": "mgs/100 gm fresh tissue"}, {"measurement": "Concentration of LE in tissue", "setting": "[9]; Testes", "result": 0.0, "unit": "mgs/100 gm fresh tissue"}, {"measurement": "Concentration of l-ergothioneine in the blood", "setting": "[9]", "result": "3-6 mg/100 ml blood"}, {"measurement": "Increase in hepatic lipid peroxidation in partially LE-deficient rats", "setting": "[10]", "result": 40, "unit": "%"}, {"measurement": "Erythrocyte lactate level on starvation", "setting": "erythrocytes", "result": "prevented a 40% starvation-induced diminution"}, {"measurement": "Concentration of l-ergothioneine in the blood", "setting": "[11]", "result": "2-10 mg/100 ml blood"}]}
